Literature values as cited in US10589003B2, “Methods for coating surfaces with antimicrobial agents” (The Board of Regents of the University of Texas System, priority 2005, dated 2020).

System: Pseudomonas aeruginosa
Settings: agent on its own; gentian violet after impregnating polymer surfaces incl. polyvinylchloride

Row | Structure (SMILES) | activity against Pseudomonas aeruginosa
1 | CN(C)c1ccc(C(=C2C=CC(=[N+](C)C)C=C2)c2ccc(N(C)C)cc2)cc1 [gentian violet] | no activity
2 | [H]/N=C(\N/C(=N/[H])NCCCCCCNC(=N)NC(=N)Nc1ccc(Cl)cc1)Nc1ccc(Cl)cc1 [chlorhexidine] | not highly active
